The results in this text go back to ChEMBL document CHEMBL1743201, “Casarett and Doull's Toxicology The Basic Science of Poisons, 7th edition” (2008).

Assay type in all cases: ADME
One series addresses T1, Cytochrome P450 2B6 (Homo sapiens, UniProt P20813).
T1 sequence (P20813 whole entry): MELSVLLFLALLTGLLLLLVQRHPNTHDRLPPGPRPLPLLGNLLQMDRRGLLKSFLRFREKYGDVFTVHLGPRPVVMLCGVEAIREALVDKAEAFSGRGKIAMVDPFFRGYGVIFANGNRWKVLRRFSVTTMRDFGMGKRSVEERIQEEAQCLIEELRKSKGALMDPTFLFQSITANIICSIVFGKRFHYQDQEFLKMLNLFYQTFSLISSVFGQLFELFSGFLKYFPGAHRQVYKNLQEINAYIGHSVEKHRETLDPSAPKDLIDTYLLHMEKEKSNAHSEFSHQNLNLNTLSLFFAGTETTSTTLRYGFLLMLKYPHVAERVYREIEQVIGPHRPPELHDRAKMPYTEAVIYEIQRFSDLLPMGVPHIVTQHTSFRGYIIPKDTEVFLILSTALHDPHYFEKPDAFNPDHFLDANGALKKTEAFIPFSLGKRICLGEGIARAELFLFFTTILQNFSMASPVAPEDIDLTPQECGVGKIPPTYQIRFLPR
The series can be described thus: Clinically relevant inducers of human liver microsomal P450 enzymes, isoform CYP2B6. Particulars: microsomes.

A further series addresses T2, Cytochrome P450 2C8 (Homo sapiens, UniProt P10632).
T2 sequence (P10632 whole entry): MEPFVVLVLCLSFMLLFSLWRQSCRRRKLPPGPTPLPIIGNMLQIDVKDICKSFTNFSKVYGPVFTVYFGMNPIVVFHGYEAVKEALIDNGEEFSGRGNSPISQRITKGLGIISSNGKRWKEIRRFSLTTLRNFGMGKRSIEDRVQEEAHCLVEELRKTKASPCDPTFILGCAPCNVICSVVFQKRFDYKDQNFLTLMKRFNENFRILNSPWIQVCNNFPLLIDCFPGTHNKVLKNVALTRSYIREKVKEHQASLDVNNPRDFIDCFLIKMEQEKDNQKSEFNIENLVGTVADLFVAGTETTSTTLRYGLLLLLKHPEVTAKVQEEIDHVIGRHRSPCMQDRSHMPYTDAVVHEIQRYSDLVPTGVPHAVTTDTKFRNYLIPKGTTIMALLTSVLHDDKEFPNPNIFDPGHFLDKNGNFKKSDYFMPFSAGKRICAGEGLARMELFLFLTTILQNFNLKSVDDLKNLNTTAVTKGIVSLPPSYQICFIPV
As to the kind of experiment: Clinically relevant inducers of human liver microsomal P450 enzymes, isoform CYP2C8. Particulars: microsomes.

A further series has as its target Cytochrome P450 2C19 (Homo sapiens, UniProt P33261). As to the kind of experiment: Clinically relevant inducers of human liver microsomal P450 enzymes, isoform CYP2C19. Particulars: microsomes.
The target of series [1] is T3, Cytochrome P450 2A6 (Homo sapiens, UniProt P11509).
T3 sequence (P11509 whole entry): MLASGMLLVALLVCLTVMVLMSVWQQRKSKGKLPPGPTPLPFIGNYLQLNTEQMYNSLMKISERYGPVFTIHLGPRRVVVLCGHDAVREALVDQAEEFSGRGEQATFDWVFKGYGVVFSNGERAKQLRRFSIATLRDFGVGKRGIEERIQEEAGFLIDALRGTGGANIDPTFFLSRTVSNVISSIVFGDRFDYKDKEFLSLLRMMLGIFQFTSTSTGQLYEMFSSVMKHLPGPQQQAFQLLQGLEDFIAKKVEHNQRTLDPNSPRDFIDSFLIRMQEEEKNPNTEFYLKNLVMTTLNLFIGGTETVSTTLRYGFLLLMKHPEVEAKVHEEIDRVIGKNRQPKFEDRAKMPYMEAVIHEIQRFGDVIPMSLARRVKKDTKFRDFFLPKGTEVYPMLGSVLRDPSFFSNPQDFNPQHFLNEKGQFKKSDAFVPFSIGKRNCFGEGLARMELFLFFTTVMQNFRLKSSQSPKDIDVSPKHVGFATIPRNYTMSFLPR
As to the kind of experiment: Clinically relevant substrates of human liver microsomal P450 enzymes, isoform CYP2A6. Particulars: microsomes.

In another series the target is Sulfotransferase 1C2 (Homo sapiens, UniProt O00338). As to the kind of experiment: Major substrate of human cytosolic sulfotransferase SULT1C2.
The target of the next series is Sulfotransferase 1C4 (Homo sapiens, UniProt O75897). As to the kind of experiment: Major substrate of human cytosolic sulfotransferase SULT1C4.
The next series deals with Sulfotransferase 1A2 (Homo sapiens, UniProt P50226). The series can be described thus: Major substrate of human cytosolic sulfotransferase SULT1A2.
The next series addresses T4, Sulfotransferase 1E1 (Homo sapiens, UniProt P49888).
T4 sequence (P49888 whole entry): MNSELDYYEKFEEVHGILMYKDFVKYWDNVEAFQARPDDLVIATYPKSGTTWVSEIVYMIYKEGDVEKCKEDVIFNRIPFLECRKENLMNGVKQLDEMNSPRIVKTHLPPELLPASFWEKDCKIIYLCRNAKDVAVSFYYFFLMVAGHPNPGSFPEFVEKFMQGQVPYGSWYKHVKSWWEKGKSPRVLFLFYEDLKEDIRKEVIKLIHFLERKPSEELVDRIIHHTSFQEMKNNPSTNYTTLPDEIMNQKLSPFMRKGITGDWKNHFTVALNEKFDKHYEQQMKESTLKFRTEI
The series can be described thus: Major substrate of human cytosolic sulfotransferase SULT1E1.

Another series deals with T5, Sulfotransferase 2A1 (Homo sapiens, UniProt Q06520).
T5 sequence (Q06520 whole entry): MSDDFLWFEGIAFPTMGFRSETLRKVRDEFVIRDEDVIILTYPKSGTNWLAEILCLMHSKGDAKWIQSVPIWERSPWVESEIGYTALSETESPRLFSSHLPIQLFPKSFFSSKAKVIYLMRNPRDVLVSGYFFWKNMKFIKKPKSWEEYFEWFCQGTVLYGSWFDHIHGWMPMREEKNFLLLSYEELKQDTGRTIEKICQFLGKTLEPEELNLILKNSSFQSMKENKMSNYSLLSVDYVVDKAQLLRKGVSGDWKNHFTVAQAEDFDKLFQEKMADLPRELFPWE
As to the kind of experiment: Major substrate of human cytosolic sulfotransferase SULT2A1.

The target in series [2] is T6, Sulfotransferase 2B1 (Homo sapiens, UniProt O00204).
T6 sequence (O00204 whole entry): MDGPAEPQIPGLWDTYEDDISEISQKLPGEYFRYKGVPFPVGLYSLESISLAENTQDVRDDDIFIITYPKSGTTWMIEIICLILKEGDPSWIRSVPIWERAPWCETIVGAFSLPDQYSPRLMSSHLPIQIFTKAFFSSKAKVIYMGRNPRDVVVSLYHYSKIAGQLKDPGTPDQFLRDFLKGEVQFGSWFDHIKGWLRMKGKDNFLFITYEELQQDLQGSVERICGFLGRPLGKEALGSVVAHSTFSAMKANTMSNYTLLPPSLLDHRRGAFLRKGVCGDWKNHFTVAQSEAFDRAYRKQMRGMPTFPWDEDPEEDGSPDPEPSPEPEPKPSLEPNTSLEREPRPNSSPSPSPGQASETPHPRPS
As to the kind of experiment: Major substrate of human cytosolic sulfotransferase SULT2B1_v1.

Series [3] deals with T6, Sulfotransferase 2B1. As to the kind of experiment: Major substrate of human cytosolic sulfotransferase SULT2B1_v2.
For series [4], the target named is T7, Cytochrome P450 2E1 (Homo sapiens, UniProt P05181). The series can be described thus: Clinically relevant inducers of human liver microsomal P450 enzymes, isoform CYP2E1. Particulars: microsomes.
Series [5] has as its target T7, Cytochrome P450 2E1. As to the kind of experiment: Clinically relevant substrates of human liver microsomal P450 enzymes, isoform CYP2E1. The note with it: microsomes.
The next series deals with Sulfotransferase 1A3 (Homo sapiens, UniProt P0DMM9). The series can be described thus: Major substrate of human cytosolic sulfotransferase SULT1A3.
Another series concerns the target Sulfotransferase 1B1 (Homo sapiens, UniProt O43704). The series can be described thus: Major substrate of human cytosolic sulfotransferase SULT1B1.
The next series has as its target T8, Sulfotransferase 4A1 (Homo sapiens, UniProt Q9BR01).
T8 sequence (Q9BR01 whole entry): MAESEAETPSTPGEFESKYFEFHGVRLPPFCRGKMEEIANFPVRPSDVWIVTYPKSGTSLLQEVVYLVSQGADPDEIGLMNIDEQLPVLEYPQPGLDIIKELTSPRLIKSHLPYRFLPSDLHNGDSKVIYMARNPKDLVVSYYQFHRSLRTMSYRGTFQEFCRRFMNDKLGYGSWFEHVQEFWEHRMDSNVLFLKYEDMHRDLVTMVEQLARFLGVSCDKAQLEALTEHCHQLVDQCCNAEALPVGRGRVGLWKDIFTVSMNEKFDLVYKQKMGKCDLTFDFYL
As to the kind of experiment: Major substrate of human cytosolic sulfotransferase SULT4A1_v1.

A further series has as its target Sulfotransferase 1A1 (Homo sapiens, UniProt P50225). The series can be described thus: Major substrate of human cytosolic sulfotransferase SULT1A1.
The target in series [6] is T9, UDP-glucuronosyltransferase 1A6 (Homo sapiens, UniProt P19224).
T9 sequence (P19224 whole entry): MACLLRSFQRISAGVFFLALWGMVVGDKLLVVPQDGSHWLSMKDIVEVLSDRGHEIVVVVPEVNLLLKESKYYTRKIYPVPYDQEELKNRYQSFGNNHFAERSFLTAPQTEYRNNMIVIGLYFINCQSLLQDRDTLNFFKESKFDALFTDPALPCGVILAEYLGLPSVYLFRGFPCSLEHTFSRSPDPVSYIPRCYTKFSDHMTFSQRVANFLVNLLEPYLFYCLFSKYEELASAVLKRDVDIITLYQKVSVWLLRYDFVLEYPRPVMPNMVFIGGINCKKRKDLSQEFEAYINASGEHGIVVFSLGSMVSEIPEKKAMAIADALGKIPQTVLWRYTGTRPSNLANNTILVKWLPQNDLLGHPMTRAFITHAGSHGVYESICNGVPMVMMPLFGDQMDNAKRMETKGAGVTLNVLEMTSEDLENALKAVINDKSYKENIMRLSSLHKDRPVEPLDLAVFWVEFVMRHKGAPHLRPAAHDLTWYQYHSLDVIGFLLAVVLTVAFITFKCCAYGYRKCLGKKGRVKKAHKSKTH
The series can be described thus: Substrate of human UDP-glucuronosyltransferase UGT1A6.

For series [7], the target named is T3, Cytochrome P450 2A6. As to the kind of experiment: Clinically relevant inducers of human liver microsomal P450 enzymes, isoform CYP2A6. The note with it: microsomes.

T7 sequence (P05181 whole entry, canonical isoform): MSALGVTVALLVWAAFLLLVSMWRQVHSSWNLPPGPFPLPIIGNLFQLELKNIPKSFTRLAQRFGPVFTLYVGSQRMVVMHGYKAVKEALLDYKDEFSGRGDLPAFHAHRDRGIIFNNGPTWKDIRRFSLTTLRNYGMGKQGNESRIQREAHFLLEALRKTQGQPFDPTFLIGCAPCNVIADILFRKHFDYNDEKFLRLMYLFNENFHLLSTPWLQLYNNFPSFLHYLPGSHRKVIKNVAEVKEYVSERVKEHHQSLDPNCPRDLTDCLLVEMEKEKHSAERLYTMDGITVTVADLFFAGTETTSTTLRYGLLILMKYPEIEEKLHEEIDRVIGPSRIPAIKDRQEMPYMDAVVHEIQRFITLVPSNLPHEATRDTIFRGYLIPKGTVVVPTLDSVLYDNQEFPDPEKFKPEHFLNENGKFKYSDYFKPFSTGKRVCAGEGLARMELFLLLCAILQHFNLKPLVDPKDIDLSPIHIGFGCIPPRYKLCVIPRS
Chain of Sulfotransferase 1C2 (O00338 whole entry): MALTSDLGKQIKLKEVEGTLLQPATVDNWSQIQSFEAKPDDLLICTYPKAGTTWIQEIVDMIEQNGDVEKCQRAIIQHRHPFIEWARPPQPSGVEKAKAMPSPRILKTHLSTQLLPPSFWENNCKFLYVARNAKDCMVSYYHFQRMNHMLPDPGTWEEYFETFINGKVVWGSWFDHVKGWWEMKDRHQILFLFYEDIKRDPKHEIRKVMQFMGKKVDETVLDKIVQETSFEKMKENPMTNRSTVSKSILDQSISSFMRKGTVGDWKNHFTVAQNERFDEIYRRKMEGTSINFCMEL
Chain of Sulfotransferase 1C4 (O75897 whole entry): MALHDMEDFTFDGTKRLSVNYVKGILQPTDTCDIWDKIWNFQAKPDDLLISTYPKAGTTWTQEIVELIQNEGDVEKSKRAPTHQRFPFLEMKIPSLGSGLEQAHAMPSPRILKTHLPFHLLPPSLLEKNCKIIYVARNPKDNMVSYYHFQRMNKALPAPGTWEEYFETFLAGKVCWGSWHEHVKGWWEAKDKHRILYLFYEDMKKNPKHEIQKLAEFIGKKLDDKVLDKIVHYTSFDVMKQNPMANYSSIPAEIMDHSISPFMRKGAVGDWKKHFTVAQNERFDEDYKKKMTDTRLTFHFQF
Chain of Sulfotransferase 1A2 (P50226 whole entry): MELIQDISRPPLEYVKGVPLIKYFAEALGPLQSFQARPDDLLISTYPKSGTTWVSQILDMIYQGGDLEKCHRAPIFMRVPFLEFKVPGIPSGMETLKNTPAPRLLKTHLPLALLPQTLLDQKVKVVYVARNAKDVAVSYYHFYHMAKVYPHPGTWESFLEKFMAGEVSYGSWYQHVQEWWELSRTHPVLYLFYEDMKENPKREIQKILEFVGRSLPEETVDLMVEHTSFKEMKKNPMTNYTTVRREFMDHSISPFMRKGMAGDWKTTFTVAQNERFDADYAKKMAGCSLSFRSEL
Chain of Sulfotransferase 1B1 (O43704 whole entry): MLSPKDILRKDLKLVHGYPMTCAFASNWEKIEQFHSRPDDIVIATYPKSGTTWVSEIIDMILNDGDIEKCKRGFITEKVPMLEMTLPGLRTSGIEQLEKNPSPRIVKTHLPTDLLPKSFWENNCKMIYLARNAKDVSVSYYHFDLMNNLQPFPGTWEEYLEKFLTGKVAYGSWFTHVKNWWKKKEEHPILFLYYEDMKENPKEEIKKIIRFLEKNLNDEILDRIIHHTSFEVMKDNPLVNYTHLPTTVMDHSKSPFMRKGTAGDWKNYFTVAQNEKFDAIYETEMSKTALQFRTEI
Chain of Sulfotransferase 1A1 (P50225 whole entry): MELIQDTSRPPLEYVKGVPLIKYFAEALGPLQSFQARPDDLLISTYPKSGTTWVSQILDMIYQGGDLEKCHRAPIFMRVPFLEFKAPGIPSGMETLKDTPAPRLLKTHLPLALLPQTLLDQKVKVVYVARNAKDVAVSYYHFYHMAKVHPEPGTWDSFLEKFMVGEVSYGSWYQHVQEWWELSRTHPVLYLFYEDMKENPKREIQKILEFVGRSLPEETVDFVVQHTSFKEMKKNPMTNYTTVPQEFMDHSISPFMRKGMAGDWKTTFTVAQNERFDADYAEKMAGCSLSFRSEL
Chain of Sulfotransferase 1A3 (P0DMM9 whole entry): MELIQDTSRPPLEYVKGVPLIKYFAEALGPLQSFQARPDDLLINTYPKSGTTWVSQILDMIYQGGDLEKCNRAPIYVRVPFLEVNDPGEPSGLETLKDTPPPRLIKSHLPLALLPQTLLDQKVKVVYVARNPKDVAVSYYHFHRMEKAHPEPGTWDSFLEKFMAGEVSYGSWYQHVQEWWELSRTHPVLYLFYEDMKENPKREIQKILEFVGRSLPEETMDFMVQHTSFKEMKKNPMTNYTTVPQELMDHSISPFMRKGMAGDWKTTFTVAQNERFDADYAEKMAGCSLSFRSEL
Chain of Cytochrome P450 2C19 (P33261 whole entry, canonical isoform): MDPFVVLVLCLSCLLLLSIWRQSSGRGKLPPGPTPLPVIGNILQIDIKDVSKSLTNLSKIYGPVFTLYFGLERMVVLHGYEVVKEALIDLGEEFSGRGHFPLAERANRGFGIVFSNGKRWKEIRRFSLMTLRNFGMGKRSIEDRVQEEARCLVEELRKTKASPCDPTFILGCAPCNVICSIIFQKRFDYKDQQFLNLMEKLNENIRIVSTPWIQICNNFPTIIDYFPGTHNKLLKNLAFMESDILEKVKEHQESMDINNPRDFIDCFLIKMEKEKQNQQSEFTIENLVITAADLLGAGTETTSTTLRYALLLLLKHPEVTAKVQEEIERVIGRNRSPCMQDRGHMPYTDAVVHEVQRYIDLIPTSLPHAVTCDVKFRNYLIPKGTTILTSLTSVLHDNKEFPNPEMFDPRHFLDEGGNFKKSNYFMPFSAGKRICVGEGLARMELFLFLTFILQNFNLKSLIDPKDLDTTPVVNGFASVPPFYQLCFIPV

`CO[C@H]1/C=C/O[C@@]2(C)Oc3c(C)c(O)c4c(O)c(c(/C=N/N5CCN(C)CC5)c(O)c4c3C2=O)NC(=O)/C(C)=C\C=C\[C@H](C)[C@H](O)[C@@H](C)[C@@H](O)[C@@H](C)[C@H](OC(C)=O)[C@@H]1C` [RIFAMPIN]: the Activity result at Cytochrome P450 2B6, on Cytochrome P450 2C8 and at Cytochrome P450 2C19 was “Inducer” throughout.

As for `CN1CCC[C@H]1c1cccnc1` [NICOTINE], at Cytochrome P450 2A6 [1], the Activity result was “Substrate”.

On to `O=c1ccc2ccccc2o1` [COUMARIN], for which, on Cytochrome P450 2A6 [1], the Activity result is given as “Substrate”.

Take `CC(=O)N(O)c1ccc2c(c1)Cc1ccccc1-2`: the Activity result at Sulfotransferase 1C2, at Sulfotransferase 1C4 and at Sulfotransferase 1A2 was “Substrate” in each case.

Regarding `CC(=O)[C@H]1CC[C@H]2[C@@H]3CC=C4C[C@@H](O)CC[C@]4(C)[C@H]3CC[C@]12C` [PREGNENOLONE], the Activity entry at Sulfotransferase 1E1, at Sulfotransferase 2A1 and at Sulfotransferase 2B1 [2] was “Substrate” in each case.

With `CC(C)CCC[C@@H](C)[C@H]1CC[C@H]2[C@@H]3CC=C4C[C@@H](O)CC[C@]4(C)[C@H]3CC[C@]12C` [CHOLESTEROL], the Activity result at Sulfotransferase 2B1 [3] is listed as “Substrate”.

On to `CCO` [ALCOHOL], for which, on Cytochrome P450 2E1 [4], the Activity entry was “Inducer”.

Take `O=[N+]([O-])c1ccc(O)cc1` [P-NITROPHENOL]: the Activity result on Cytochrome P450 2E1 [5], on Sulfotransferase 1A3, on Sulfotransferase 1B1, on Sulfotransferase 1C2, at Sulfotransferase 1C4 and at Sulfotransferase 4A1 was “Substrate” each time. Further, the Activity result (at Sulfotransferase 1A1; on Sulfotransferase 1A2; in [6]) was “Substrate” throughout.

Consider `C[C@@H]1C[C@H]2[C@@H]3CCC4=CC(=O)C=C[C@]4(C)[C@@]3(F)[C@@H](O)C[C@]2(C)[C@@]1(O)C(=O)CO` [DEXAMETHASONE], for which the Activity entry on Cytochrome P450 2A6 [7] is “Inducer”.

In the case of `NNC(=O)c1ccncc1` [ISONIAZID], the Activity entry on Cytochrome P450 2E1 [4] was “Inducer”.

In the case of `c1cn[nH]c1` [PYRAZOLE], the Activity result on Cytochrome P450 2A6 [7] is “Inducer”.

`C[C@]12CC[C@H](O)CC1=CC[C@@H]1[C@@H]2CC[C@]2(C)C(=O)CC[C@@H]12` [PRASTERONE]: the Activity result at Sulfotransferase 1E1, at Sulfotransferase 2A1, on Sulfotransferase 2B1 [2] and on Sulfotransferase 2B1 [3] was “Substrate” each time.
